Laboratory results reported in patent US20240024444A1, “Combined Preparation” (MEDRx Co., Ltd., priority 2020, published 2024).

Test: In vitro skin permeability test (Franz diffusion cell)
Assay type: in vitro ADME, rat (Slc: Wistar)
Procedure: In this test, a Franz diffusion cell (effective diffusion area: 1.0 cm^2, PermeGear, Hellertown, US) was used, and the abdominal skin (shaved before the skin is removed) of 5-week-old male rats (Slc: Wistar) was used.
The abdominal skin of rats was cut to about […] (23 mm round) and set in a receptor cell filled with 8.0 mL of the receptor solution (saline of 0.1% bovine serum albumin (BSA) (purchased from FUJIFILM Wako Pure Chemical Corporation)). The receptor solution was kept at 32° C. in a circulator water bath at a constant temperature. After 2, 4, 6, 8 and 24 hours, the receptor solution (0.2 mL) was collected and each of the collected solution was used as samples. After collecting the samples, the same amount of the receptor solution was added into the receptor cell to keep the volume of the receptor solution constant. […] The HPLC condition was as follows: Column: YMC Pack Pro C18 RS 5 μm, 4.6×150 mm; YMC CO., LTD., Mobile Phase: acetonitrile/0.1% trifluoroacetic acid (23/77, v/v) at 35° C., Flow Rate: 1.0 mL/min. The wavelength of the UV detector was set to 215 nm.

CCOCc1nc2c(N)nc3ccccc3c2n1CC(C)(C)O [R848, Resiquimod]
accumulative amount of the co-administered R848 for 24 hours (R848 co-administered with WT1 peptide): about 350 μg/cm^2
accumulative amount of the individually-administered R848 for 24 hours (R848 individually administered): about 1500 μg/cm^2
